Data on 5 compounds can be found in patent US4127665A, “Thienohydantoin derivatives” (Pfizer Inc., priority 1978, dated 1978).

Where two headings read alike, the source gives them in different places.

One assay deals with T1, aldose reductase (Bos taurus, UniProt P16116).
T1 construct: partially purified aldose reductase enzyme obtained from calf lens; from tissue; host or cells: calf lens
In words: Inhibition of aldose reductase enzyme activity (partially purified enzyme from calf lens). It counts as biochemical. The conditions noted are these: for inhibition at 100 µM: 10^-4 M; for inhibition at 10 µM: 10^-5 M; for inhibition at 1 µM: 10^-6 M; for inhibition at 1 µM / inhibition at 0.1 µM: low negative values not significant; for inhibition at 0.1 µM: 10^-7 M. The protocol: The spiro-thienohydantoins of Examples 1 through 5 were tested for their ability to reduce or inhibit aldose reductase enzyme activity, following the procedure described in U.S. Pat. No. 3,821,383 and based on the procedure of Hayman et. al., Journal of Biological Chemistry, 240, 877 (1965). The substrate employed was partially purified aldose reductase enzyme obtained from calf lens. The results obtained with each compound at a concentration of 10^-4 M are expressed as percent inhibition of enzyme activity.
The test of Example 6 was repeated at different concentrations of the compound under test, namely 10^-4 M, 10^-5 M, 10^-6 M, and 10^-7 M.
In this test, values below 20 are not always experimentally and statistically significant.

Assay [1] concerns sorbitol accumulation in the sciatic nerve of streptozotocinized (i.e., diabetic) rats. In words: Inhibition of sorbitol accumulation in the sciatic nerve of streptozotocinized (diabetic) rats. It counts as in vivo, rat. The conditions noted are these: measured 27 hours after induction, vs untreated. The procedure:
The compounds of Examples 4 and 5 were tested for their ability to reduce or inhibit sorbitol accumulation in the sciatic nerve of streptozotocinized (i.e., diabetic) rats by the procedure essentially described in U.S. Pat. No. 3,821,383. In the present study, the amount of sorbitol accumulation in the sciatic nerves was measured 27 hours after induction of diabetes. The compounds were administered orally at the dose levels indicated at 4, 8 and 24 hours following the administration of streptozotocin. The results obtained in this manner are presented below in terms of percent inhibition (%) afforded by the test compound as compared to the case where no compound was administered (i.e., the untreated animal where sorbitol levels normally rise from approximately 50-100 mM/g. tissue to as high as 400 mM/g. tissue in the 27-hour test period): […]

Setting [2] is: Example 6 test, calf lens enzyme, read-out: % Inhibition at 10^-4 M.
[3] abbreviates: Example 7 repeat test, values below 20 not always significant, read-out: % Inhibition.
Setting [4] is: Example 7 repeat test, values below 20 not always significant.

`O=C1NC(=O)C2(CCc3c(Cl)sc(Cl)c32)N1` (stereo not shown) [Example 1]: the inhibition at 100 µM at aldose reductase (setting [2]) came out at 83%. The inhibition at 100 µM on aldose reductase (setting [3]) is 88%. In addition, at aldose reductase (setting [4]), the inhibition at 10 µM stood at 67%, the inhibition at 1 µM was 12% and the inhibition at 0.1 µM was -7%.
With `O=C1NC(=O)C2(CCc3c2csc3Cl)N1` (stereo not shown) [Example 2], the inhibition at 100 µM on aldose reductase (setting [2]) turned out to be 95%. At aldose reductase (setting [3]), the inhibition at 100 µM is 35%. Besides, on aldose reductase (setting [4]), the inhibition at 10 µM stood at 67%, the inhibition at 1 µM is -12% and the inhibition at 0.1 µM is 21%.
Consider `O=C1NC(=O)C2(CCc3cscc32)N1` (stereo not shown) [Example 3], for which, at aldose reductase (setting [2]), the inhibition at 100 µM is 46%.
Consider `O=C1NC(=O)C2(CCc3sc(Cl)cc32)N1` (stereo not shown) [Example 4], for which, on aldose reductase (setting [2]), the inhibition at 100 µM was 80%. Also, at aldose reductase (setting [3]), the inhibition at 100 µM came out at 75%. In addition, on aldose reductase (setting [4]), the inhibition at 10 µM turned out to be 55%, the inhibition at 1 µM was 18% and the inhibition at 0.1 µM was 15%. In addition, the “% Inhibition (sorbitol accumulation in sciatic nerve)” value in assay [1] (2.5 mg/kg orally at 4, 8 and 24 hours after streptozotocin) is reported as 20%.
As for `O=C1NC(=O)C2(CCCc3sccc32)N1` (stereo not shown) [Example 5, 6,7-dihydro-spiro[benzo(b)thiophene-4(5H),4'-imidazolidine]-2',5'-dione], the inhibition at 100 µM on aldose reductase (setting [2]) is 52%. Also, the “% Inhibition (sorbitol accumulation in sciatic nerve)” value in assay [1] (25 mg/kg orally at 4, 8 and 24 hours after streptozotocin) is reported as 56%.

As usually defined, the inhibition is the drop in the measured response relative to a control, in per cent.
